The IC50 is the concentration at which inhibition is half-maximal.

The subject of one experiment is HCT116 WT cells. The experiment can be described thus: HCT116 WT cell line proliferation (CellTiter-Glo cell viability, 6 days). The settings on record: HCT116 WT (parent) cells, 6 days of treatment, CellTiter-Glo cell viability, read-out: HCT-116 WT IC50. The class given is cell-based. The gist of the method: (§1)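 Viability by CellTiter-Glo after 6 days' drug exposure in wild-type HCT116 and its MTAP-null knockout, with DMSO-only control. Dosing used either 1:3 steps (top 1 or 10 μM) or 22 points in 1:2 steps (top 10 or 50 μM). IC50 taken where the fitted curve crosses 50% of control.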
A general note: Cellular ATP, detected with luciferase, serves as a proxy for viable cell number.

The next experiment concerns HCT116 MTAP null cells. As to the kind of experiment: HCT116 MTAP null cell line proliferation (CellTiter-Glo cell viability, 6 days). The class given is cell-based. The settings on record: HCT116 MTAP null cells, 6 days of treatment, CellTiter-Glo cell viability, read-out: HCT-116 MTAP null IC50. In short, it runs like this:
as §1

Where two headings read alike, the source gives them in different places.

As for `Nc1nc2cc(F)c(C(=O)N3CCOCC3c3ccnc(C(F)(F)F)c3)cc2c2c1COC2` (racemic) [Example 352, (4-amino-7-fluoro-1,3-dihydrofuro[3,4-c]quinolin-8-yl)((3R)-3-(2-(trifluoromethyl)-4-pyridinyl)-4-morpholinyl)methanone and (4-amino-7-fluoro-1,3-dihydrofuro[3,4-c]quinolin-8-yl)((3S)-3-(2-(trifluoromethyl)-4-pyridinyl)-4-morpholinyl)methanone], the 50% inhibitory concentration (IC50) came to 20700 nM with HCT116 WT cells and 717 nM in the experiment on HCT116 MTAP null cells.
Take `Nc1nc2cc(Cl)c(C(=O)N3CCOCC3c3ccnc(C(F)(F)F)c3)cc2c2c1COC2` (racemic) [Example 353, (4-amino-7-chloro-1,3-dihydrofuro[3,4-c]quinolin-8-yl)((3R)-3-(2-(trifluoromethyl)-4-pyridinyl)-4-morpholinyl)methanone and (4-amino-7-chloro-1,3-dihydrofuro[3,4-c]quinolin-8-yl)((3S)-3-(2-(trifluoromethyl)-4-pyridinyl)-4-morpholinyl)methanone]: the IC50 in the experiment on HCT116 WT cells amounted to 6890 nM; with HCT116 MTAP null cells, 234 nM.
For `C[C@H]1OCc2c1c(N)nc1ccc(C(=O)N3CCOC[C@@H]3c3ccnc(C(F)(F)F)c3)cc21` (racemic) [Example 354, ((3R)-4-amino-3-methyl-1,3-dihydrofuro[3,4-c]quinolin-8-yl)((3R)-3-(2-(trifluoromethyl)-4-pyridinyl)-4-morpholinyl)methanone and ((3R)-4-amino-3-methyl-1,3-dihydrofuro[3,4-c]quinolin-8-yl)((3S)-3-(2-(trifluoromethyl)-4-pyridinyl)-4-morpholinyl)methanone], the IC50 was above 10000 nM in the experiment on HCT116 WT cells (Homo sapiens, HCT-116, 144 h) and 487 nM in the experiment on HCT116 MTAP null cells (HCT116-MTAP null, 144 h).
In the case of `C[C@@H]1OCc2c1c(N)nc1cnc(C(=O)N3CCOC[C@H]3c3ccc(F)c(C(F)(F)F)c3)cc21` (racemic) [Example 355, ((3S)-4-amino-3-methyl-1,3-dihydrofuro[3,4-c][1,7]naphthyridin-8-yl)((3R)-3-(4-fluoro-3-(trifluoromethyl)phenyl)-4-morpholinyl)methanone and ((3S)-4-amino-3-methyl-1,3-dihydrofuro[3,4-c][1,7]naphthyridin-8-yl)((3S)-3-(4-fluoro-3-(trifluoromethyl)phenyl)-4-morpholinyl)methanone], the IC50 in the experiment with HCT116 WT cells (Homo sapiens, HCT-116, 144 h) was above 10000 nM; in the experiment on HCT116 MTAP null cells (HCT116-MTAP null, 144 h), 4060 nM.
As for `C[C@H]1OCc2c1c(N)nc1cnc(C(=O)N3CCOC[C@H]3c3ccc(F)c(C(F)(F)F)c3)cc21` (racemic) [Example 356, ((3R)-4-amino-3-methyl-1,3-dihydrofuro[3,4-c][1,7]naphthyridin-8-yl)((3R)-3-(4-fluoro-3-(trifluoromethyl)phenyl)-4-morpholinyl)methanone and ((3R)-4-amino-3-methyl-1,3-dihydrofuro[3,4-c][1,7]naphthyridin-8-yl)((3S)-3-(4-fluoro-3-(trifluoromethyl)phenyl)-4-morpholinyl)methanone], the IC50 in the experiment with HCT116 WT cells (Homo sapiens, HCT-116, 144 h) was above 10000 nM; in the experiment with HCT116 MTAP null cells (HCT116-MTAP null, 144 h), 257 nM.
As for `C[C@H]1OCc2c1c(N)nc1cnc(C(=O)N3CCOC[C@H]3c3ccc(C(F)(F)F)cn3)cc21` (racemic) [Example 357, ((3R)-4-amino-3-methyl-1,3-dihydrofuro[3,4-c][1,7]naphthyridin-8-yl)((3R)-3-(5-(trifluoromethyl)-2-pyridinyl)-4-morpholinyl)methanone and ((3R)-4-amino-3-methyl-1,3-dihydrofuro[3,4-c][1,7]naphthyridin-8-yl)((3S)-3-(5-(trifluoromethyl)-2-pyridinyl)-4-morpholinyl)methanone], the IC50 with HCT116 WT cells (Homo sapiens, HCT-116, 144 h) was 9390 nM; in the experiment on HCT116 MTAP null cells (HCT116-MTAP null, 144 h), 175 nM.
As for `C[C@H]1OCc2c1c(N)nc1cnc(C(=O)N3CCOC[C@H]3c3ccc(F)c(OC(F)(F)F)c3)cc21` (racemic) [Example 358, ((3R)-4-amino-3-methyl-1,3-dihydrofuro[3,4-c][1,7]naphthyridin-8-yl)((3R)-3-(4-fluoro-3-(trifluoromethoxy)phenyl)-4-morpholinyl)methanone and ((3R)-4-amino-3-methyl-1,3-dihydrofuro[3,4-c][1,7]naphthyridin-8-yl)((3S)-3-(4-fluoro-3-(trifluoromethoxy)phenyl)-4-morpholinyl)methanone], the IC50 was 14000 nM in the experiment on HCT116 WT cells (Homo sapiens, HCT-116, 144 h) and 313 nM in the experiment on HCT116 MTAP null cells (HCT116-MTAP null, 144 h).
Taken in the same sequence, the figures for `C[C@@H]1COC[C@H](c2ccc(OC(F)(F)F)cn2)N1C(=O)c1cc2c3c(c(N)nc2cn1)COC3` (racemic) [Example 359, (4-amino-1,3-dihydrofuro[3,4-c][1,7]naphthyridin-8-yl)((3R,5S)-3-methyl-5-(5-(trifluoromethoxy)-2-pyridinyl)-4-morpholinyl)methanone and (4-amino-1,3-dihydrofuro[3,4-c][1,7]naphthyridin-8-yl)((3S,5R)-3-methyl-5-(5-(trifluoromethoxy)-2-pyridinyl)-4-morpholinyl)methanone] were 765 nM and 22 nM.
`Cc1ccccc1C1COCCN1C(=O)c1ccc2nc(N)c3c(c2c1)COC3` (racemic) [Example 362, (4-amino-1,3-dihydrofuro[3,4-c]quinolin-8-yl)-[rac-(3S)-3-(o-tolyl)morpholin-4-yl]methanone]: the IC50 with HCT116 WT cells (Homo sapiens, HCT-116, 144 h) was above 10000 nM; with HCT116 MTAP null cells (HCT116-MTAP null, 144 h), 3410 nM.
For the molecule `Nc1nc2ccc(C(=O)N3CCOCC3c3ccc(F)cc3)cc2c2c1COC2` (racemic) [Example 363, (4-amino-1,3-dihydrofuro[3,4-c]quinolin-8-yl)-[rac-(3S)-3-(4-fluorophenyl)morpholin-4-yl]methanone], the IC50 in the experiment with HCT116 WT cells (Homo sapiens, HCT-116, 144 h) was above 10000 nM; with HCT116 MTAP null cells (HCT116-MTAP null, 144 h), 1910 nM.
In the case of `Nc1nc2ccc(C(=O)N3CCOCC3c3cccc(F)c3)cc2c2c1COC2` (racemic) [Example 364, (4-amino-1,3-dihydrofuro[3,4-c]quinolin-8-yl)-[rac-(3S)-3-(3-fluorophenyl)morpholin-4-yl]methanone], the IC50 was above 10000 nM in the experiment on HCT116 WT cells (Homo sapiens, HCT-116, 144 h) and 3480 nM in the experiment on HCT116 MTAP null cells (HCT116-MTAP null, 144 h).
As for `COc1ccc(C2COCCN2C(=O)c2ccc3nc(N)c4c(c3c2)COC4)cc1` (racemic) [Example 365, (4-amino-1,3-dihydrofuro[3,4-c]quinolin-8-yl)-[rac-(3S)-3-(4-methoxyphenyl)morpholin-4-yl]methanone], the IC50 is above 10000 nM in the experiment on HCT116 WT cells (Homo sapiens, HCT-116, 144 h) and 1560 nM in the experiment on HCT116 MTAP null cells (HCT116-MTAP null, 144 h).
Taken in the same sequence, the figures for `Nc1nc2ccc(C(=O)N3CCC(F)(F)CC3c3ccc(Br)cc3)cc2c2c1COC2` (racemic) [Example 368, (4-amino-1,3-dihydrofuro[3,4-c]quinolin-8-yl)-[rac-(2R)-2-(4-bromophenyl)-4,4-difluoro-1-piperidyl]methanone] were 2030 nM and 457 nM.
The corresponding values for `C[C@H]1OCc2c1c(N)nc1ccc(C(=O)N3[C@@H](C)COC[C@H]3c3ccc(C(F)(F)F)cn3)cc21` (racemic) [Example 372, ((3R)-4-amino-3-methyl-1,3-dihydrofuro[3,4-c]quinolin-8-yl)((3R,5S)-3-methyl-5-(5-(trifluoromethyl)-2-pyridinyl)-4-morpholinyl)methanone and ((3R)-4-amino-3-methyl-1,3-dihydrofuro[3,4-c]quinolin-8-yl)((3S,5R)-3-methyl-5-(5-(trifluoromethyl)-2-pyridinyl)-4-morpholinyl)methanone] are 613 nM and 23 nM.
In the case of `C[C@H]1OCc2c1c(N)nc1ccc(C(=O)N3CCOC[C@H]3c3ccc(F)c(OC(F)(F)F)c3)cc21` (racemic) [Example 373, ((3R)-4-amino-3-methyl-1,3-dihydrofuro[3,4-c]quinolin-8-yl)((3R)-3-(4-fluoro-3-(trifluoromethoxy)phenyl)-4-morpholinyl)methanone and ((3R)-4-amino-3-methyl-1,3-dihydrofuro[3,4-c]quinolin-8-yl)((3S)-3-(4-fluoro-3-(trifluoromethoxy)phenyl)-4-morpholinyl)methanone], the IC50 in the experiment with HCT116 WT cells (Homo sapiens, HCT-116, 144 h) stood at 7820 nM; in the experiment with HCT116 MTAP null cells (HCT116-MTAP null, 144 h), 442 nM.
Taken in the same sequence, the figures for `C[C@H]1OCc2c1c(N)nc1ccc(C(=O)N3CCOC[C@H]3c3ccc(F)c(C(F)(F)F)c3)cc21` (racemic) [Example 374, ((3R)-4-amino-3-methyl-1,3-dihydrofuro [3,4-c]quinolin-8-yl)((3R)-3-(4-fluoro-3-(trifluoromethyl)phenyl)-4-morpholinyl)methanone and ((3R)-4-amino-3-methyl-1,3-dihydrofuro[3,4-c]quinolin-8-yl)((3S)-3-(4-fluoro-3-(trifluoromethyl)phenyl)-4-morpholinyl)methanone] were 9890 nM and 161 nM.
As to `C[C@H]1COC[C@@H](c2ccc(OC(F)(F)F)cn2)N1C(=O)c1cc2c3c(c(N)nc2cc1Cl)COC3` (racemic) [Example 375, (4-amino-7-chloro-1,3-dihydrofuro[3,4-c]quinolin-8-yl)((3R,5S)-3-methyl-5-(5-(trifluoromethoxy)-2-pyridinyl)-4-morpholinyl)methanone and (4-amino-7-chloro-1,3-dihydrofuro[3,4-c]quinolin-8-yl)((3S,5R)-3-methyl-5-(5-(trifluoromethoxy)-2-pyridinyl)-4-morpholinyl)methanone], the IC50 in the experiment with HCT116 WT cells (Homo sapiens, HCT-116, 144 h) worked out at 58 nM; with HCT116 MTAP null cells (HCT116-MTAP null, 144 h) it was 3 nM.
